Test results taken from patent US20250147039A1, “Compounds for complexation of rare earth elements and/or s-, p-, d- block metals, their coordination compounds, peptide conjugates, method of their preparation and use thereof” (USTAV ORGANICKE CHEMIE A BIOCHEMIE AV CR V.V.I., priority 2021, published 2025).

Tests used:
[1] = Dissociation of chelates in aq. 6.0M HCl at 80° C. (acid decomplexation kinetic inertness) (Chart 17); format: physicochemical
[2] = Dissociation of chelates in aq. 0.1M HCl at RT (acid decomplexation kinetic inertness) (Chart 20); format: physicochemical
[3] = Dissociation of chelates in aq. 1.0M HCl at 80° C. (acid decomplexation kinetic inertness) (Chart 18); format: physicochemical
[4] = Dissociation of chelates in aq. 0.1M HCl at 80° C. (acid decomplexation kinetic inertness) (Chart 19); format: physicochemical
[5] = Alkali metal dependent formation of 1,5-cz-Lig and 1,4-cz-Lig isomers from Lig at pH 10.2 (Chart 14); format: physicochemical; conditions: B: 1 day at 80° C., Borate/(M^I)2CO3 buffer pH 10.2; for conversion to 1,4-cz-Lig isomer, Li^I / conversion to 1,5-cz-Lig isomer, Li^I: visible analyte free precipitate
[6] = Formation of 1,5-cz-[Ln(Lig)] from Lig and Ln^III ions (metal dependent click-zip), MOPS/NaOH buffer pH 7.0, analytical HPLC (Charts 1, 2); conditions: MOPS/NaOH buffer pH 7.0
[7] = Formation of 1,5-cz-[M(Lig)] from Lig and M^III ions (metal dependent click-zip) (Charts 4, 5); format: physicochemical; conditions: MOPS/NaOH buffer pH 7.0, TD728, TD827 in 50% i-PrOH; for conversion to 1,5-cz-[M(Lig)], Y^III: TD714 sum of two diastereoisomers

O=C1C[N@@]2CC[N@]3CC[N@@](CC[N@](CC2)Cc2cccc(n2)-c2cn(nn2)Cc2cc(-c4ccccc4)cc(n2)C3)CC(=O)[O][Cd][O]1 [TD900]
fraction of intact chelate ([1]; 1 month): 0%
fraction of intact chelate ([1]; 1 week): 0%
fraction of intact chelate ([1]; 1 hour): 0%
fraction of intact chelate ([1]; 1 day): 0%
fraction of intact chelate ([2]; 1 month): 63%
fraction of intact chelate ([2]; 1 week): 91%
fraction of intact chelate ([2]; 1 hour): 100%
fraction of intact chelate ([2]; 1 day): 99%
fraction of intact chelate ([3]; 1 month): 0%
fraction of intact chelate ([3]; 1 week): 0%
fraction of intact chelate ([3]; 1 hour): 0%
fraction of intact chelate ([3]; 1 day): 0%
fraction of intact chelate ([4]; 1 month): 0%
fraction of intact chelate ([4]; 1 week): 0%
fraction of intact chelate ([4]; 1 hour): 56%
fraction of intact chelate ([4]; 1 day): 0%

O=C1C[N@@]2CC[N@]3CC[N@@](CC[N@](CC2)Cc2cccc(n2)-c2cnnn2Cc2cc(-c4ccc(C(=O)O)cc4)cc(n2)C3)CC(=O)[O][Lu][O]1 [TD748]
fraction of intact chelate ([1]; 1 month): 97%
fraction of intact chelate ([1]; 1 week): 100%
fraction of intact chelate ([1]; 1 hour): 100%
fraction of intact chelate ([1]; 1 day): 100%

O=C1C[N@@]2CC[N@]3CC[N@@](CC[N@](CC2)Cc2cccc(n2)-c2cnnn2Cc2cc(-c4ccccc4)cc(n2)C3)CC(=O)[O][Y][O]1 [TD649]
fraction of intact chelate ([1]; 1 month): 0%
fraction of intact chelate ([1]; 1 week): 7%
fraction of intact chelate ([1]; 1 hour): 98%
fraction of intact chelate ([1]; 1 day): 69%
fraction of intact chelate ([2]; 1 month): 100%
fraction of intact chelate ([2]; 1 week): 100%
fraction of intact chelate ([2]; 1 hour): 100%
fraction of intact chelate ([2]; 1 day): 100%
fraction of intact chelate ([3]; 1 month): 92%
fraction of intact chelate ([3]; 1 week): 98%
fraction of intact chelate ([3]; 1 hour): 100%
fraction of intact chelate ([3]; 1 day): 100%
fraction of intact chelate ([4]; 1 month): 100%
fraction of intact chelate ([4]; 1 week): 100%
fraction of intact chelate ([4]; 1 hour): 100%
fraction of intact chelate ([4]; 1 day): 100%

O=C1C[N@@]2CC[N@]3CC[N@@](CC[N@](CC2)Cc2cccc(n2)-c2cnnn2Cc2cc(-c4ccccc4)cc(n2)C3)CC(=O)[O][La][O]1 [TD651]
fraction of intact chelate ([1]; 1 month): 0%
fraction of intact chelate ([1]; 1 week): 0%
fraction of intact chelate ([1]; 1 hour): 0%
fraction of intact chelate ([1]; 1 day): 0%
fraction of intact chelate ([2]; 1 month): 0%
fraction of intact chelate ([2]; 1 week): 0%
fraction of intact chelate ([2]; 1 hour): 76%
fraction of intact chelate ([2]; 1 day): 4%
fraction of intact chelate ([3]; 1 month): 0%
fraction of intact chelate ([3]; 1 week): 0%
fraction of intact chelate ([3]; 1 hour): 0%
fraction of intact chelate ([3]; 1 day): 0%
fraction of intact chelate ([4]; 1 month): 0%
fraction of intact chelate ([4]; 1 week): 0%
fraction of intact chelate ([4]; 1 hour): 0%
fraction of intact chelate ([4]; 1 day): 0%

O=C1C[N@@]2CC[N@]3CC[N@@](CC[N@](CC2)Cc2cccc(n2)-c2cnnn2Cc2cc(-c4ccccc4)cc(n2)C3)CC(=O)[O][Dy][O]1 [TD866]
fraction of intact chelate ([1]; 1 month): 0%
fraction of intact chelate ([1]; 1 week): 0%
fraction of intact chelate ([1]; 1 hour): 95%
fraction of intact chelate ([1]; 1 day): 25%
fraction of intact chelate ([2]; 1 month): 100%
fraction of intact chelate ([2]; 1 week): 100%
fraction of intact chelate ([2]; 1 hour): 100%
fraction of intact chelate ([2]; 1 day): 100%
fraction of intact chelate ([3]; 1 month): 87%
fraction of intact chelate ([3]; 1 week): 96%
fraction of intact chelate ([3]; 1 hour): 100%
fraction of intact chelate ([3]; 1 day): 99%
fraction of intact chelate ([4]; 1 month): 100%
fraction of intact chelate ([4]; 1 week): 100%
fraction of intact chelate ([4]; 1 hour): 100%
fraction of intact chelate ([4]; 1 day): 100%

O=C1C[N@@]2CC[N@]3CC[N@@](CC[N@](CC2)Cc2cccc(n2)-c2cnnn2Cc2cc(-c4ccccc4)cc(n2)C3)CC(=O)[O][Tm][O]1 [TD601]
fraction of intact chelate ([1]; 1 month): 69%
fraction of intact chelate ([1]; 1 week): 92%
fraction of intact chelate ([1]; 1 hour): 100%
fraction of intact chelate ([1]; 1 day): 99%
fraction of intact chelate ([2]; 1 month): 100%
fraction of intact chelate ([2]; 1 week): 100%
fraction of intact chelate ([2]; 1 hour): 100%
fraction of intact chelate ([2]; 1 day): 100%
fraction of intact chelate ([3]; 1 month): 100%
fraction of intact chelate ([3]; 1 week): 100%
fraction of intact chelate ([3]; 1 hour): 100%
fraction of intact chelate ([3]; 1 day): 100%
fraction of intact chelate ([4]; 1 month): 100%
fraction of intact chelate ([4]; 1 week): 100%
fraction of intact chelate ([4]; 1 hour): 100%
fraction of intact chelate ([4]; 1 day): 100%

O=C1CN2CCN3CCN(CCN(CC2)Cc2cccc(n2)-c2cnnn2Cc2cccc(n2)C3)CP(=O)(O)[O][Lu][O]1 [TD734]
fraction of intact chelate ([1]; 1 month): 95%
fraction of intact chelate ([1]; 1 week): 98%
fraction of intact chelate ([1]; 1 hour): 100%
fraction of intact chelate ([1]; 1 day): 100%

NCc1nnn2c1-c1cccc(n1)C[N@]1CC[N@]3CC[N@@](CC[N@@](CC1)CC(=O)[O][Lu][O]C(=O)C3)Cc1cc(-c3ccccc3)cc(n1)C2 [TD735]
fraction of intact chelate ([1]; 1 month): 98%
fraction of intact chelate ([1]; 1 week): 99%
fraction of intact chelate ([1]; 1 hour): 100%
fraction of intact chelate ([1]; 1 day): 100%

C#Cc1cccc(CN2CCN(CP(=O)(O)O)CCN(Cc3cccc(CN=[N+]=[N-])n3)CCN(CP(=O)(O)O)CC2)n1 [TD581]
conversion to 1,4-cz-Lig isomer, Cs^I [5]: 31%
conversion to 1,4-cz-Lig isomer, K^I [5]: 32%
conversion to 1,4-cz-Lig isomer, Na^I [5]: 26%
conversion to 1,4-cz-Lig isomer, Rb^I [5]: 32%
conversion to 1,5-cz-Lig isomer, Cs^I [5]: 6%
conversion to 1,5-cz-Lig isomer, K^I [5]: 7%
conversion to 1,5-cz-Lig isomer, Na^I [5]: 25%
conversion to 1,5-cz-Lig isomer, Rb^I [5]: 7%
conversion to 1,4-cz-Lig isomer, Li^I [5]: 19%
conversion to 1,5-cz-Lig isomer, Li^I [5]: 10%

C#Cc1cccc(CN2CCN(CP(=O)(O)OCC)CCN(Cc3cccc(CN=[N+]=[N-])n3)CCN(CP(=O)(O)OCC)CC2)n1 [TD582]
conversion to 1,5-cz-[Ln(Lig)], Ce^III ([6]; after 1 week at 80° C.): 0%
conversion to 1,5-cz-[Ln(Lig)], Ce^III ([6]; after 1 hour at 80° C.): 0%
conversion to 1,5-cz-[Ln(Lig)], Dy^III ([6]; after 1 week at 80° C.): 85%
conversion to 1,5-cz-[Ln(Lig)], Dy^III ([6]; after 1 hour at 80° C.): 18%
conversion to 1,5-cz-[Ln(Lig)], Er^III ([6]; after 1 week at 80° C.): 74%
conversion to 1,5-cz-[Ln(Lig)], Er^III ([6]; after 1 hour at 80° C.): 15%
conversion to 1,5-cz-[Ln(Lig)], Eu^III ([6]; after 1 week at 80° C.): 87%
conversion to 1,5-cz-[Ln(Lig)], Eu^III ([6]; after 1 hour at 80° C.): 14%
conversion to 1,5-cz-[Ln(Lig)], Gd^III ([6]; after 1 week at 80° C.): 86%
conversion to 1,5-cz-[Ln(Lig)], Gd^III ([6]; after 1 hour at 80° C.): 15%
conversion to 1,5-cz-[Ln(Lig)], Ho^III ([6]; after 1 week at 80° C.): 79%
conversion to 1,5-cz-[Ln(Lig)], Ho^III ([6]; after 1 hour at 80° C.): 16%
conversion to 1,5-cz-[Ln(Lig)], La^III ([6]; after 1 week at 80° C.): 0%
conversion to 1,5-cz-[Ln(Lig)], La^III ([6]; after 1 hour at 80° C.): 0%
conversion to 1,5-cz-[Ln(Lig)], Lu^III ([6]; after 1 week at 80° C.): 26%
conversion to 1,5-cz-[Ln(Lig)], Lu^III ([6]; after 1 hour at 80° C.): 5%
conversion to 1,5-cz-[Ln(Lig)], Nd^III ([6]; after 1 week at 80° C.): 60%
conversion to 1,5-cz-[Ln(Lig)], Nd^III ([6]; after 1 hour at 80° C.): 6%
conversion to 1,5-cz-[Ln(Lig)], Pr^III ([6]; after 1 week at 80° C.): 17%
conversion to 1,5-cz-[Ln(Lig)], Pr^III ([6]; after 1 hour at 80° C.): 5%
conversion to 1,5-cz-[Ln(Lig)], Sm^III ([6]; after 1 week at 80° C.): 86%
conversion to 1,5-cz-[Ln(Lig)], Sm^III ([6]; after 1 hour at 80° C.): 12%
conversion to 1,5-cz-[Ln(Lig)], Tb^III ([6]; after 1 week at 80° C.): 82%
conversion to 1,5-cz-[Ln(Lig)], Tb^III ([6]; after 1 hour at 80° C.): 18%
conversion to 1,5-cz-[Ln(Lig)], Tm^III ([6]; after 1 week at 80° C.): 68%
conversion to 1,5-cz-[Ln(Lig)], Tm^III ([6]; after 1 hour at 80° C.): 14%
conversion to 1,5-cz-[Ln(Lig)], Yb^III ([6]; after 1 week at 80° C.): 59%
conversion to 1,5-cz-[Ln(Lig)], Yb^III ([6]; after 1 hour at 80° C.): 12%
conversion to 1,4-cz-Lig isomer, Cs^I [5]: 26%
conversion to 1,4-cz-Lig isomer, K^I [5]: 25%
conversion to 1,4-cz-Lig isomer, Na^I [5]: 2%
conversion to 1,4-cz-Lig isomer, Rb^I [5]: 25%
conversion to 1,5-cz-Lig isomer, Cs^I [5]: 10%
conversion to 1,5-cz-Lig isomer, K^I [5]: 11%
conversion to 1,5-cz-Lig isomer, Na^I [5]: 69%
conversion to 1,5-cz-Lig isomer, Rb^I [5]: 10%
conversion to 1,4-cz-Lig isomer, Li^I [5]: 3%
conversion to 1,5-cz-Lig isomer, Li^I [5]: 53%
conversion to 1,5-cz-[M(Lig)], Sc^III ([7]; 1 week at 80° C.): 0%
conversion to 1,5-cz-[M(Lig)], Y^III ([7]; 1 week at 80° C.): 68%
conversion to 1,5-cz-[M(Lig)], Sc^III ([7]; 1 hour at 80° C.): 0%
conversion to 1,5-cz-[M(Lig)], Y^III ([7]; 1 hour at 80° C.): 11%

C#Cc1cccc(CN2CCNCCN(Cc3cccc(CN=[N+]=[N-])n3)CCN(CC(=O)O)CC2)n1 [TD703]
conversion to 1,4-cz-Lig isomer, Cs^I [5]: 20%
conversion to 1,4-cz-Lig isomer, K^I [5]: 20%
conversion to 1,4-cz-Lig isomer, Na^I [5]: 10%
conversion to 1,4-cz-Lig isomer, Rb^I [5]: 20%
conversion to 1,5-cz-Lig isomer, Cs^I [5]: 13%
conversion to 1,5-cz-Lig isomer, K^I [5]: 14%
conversion to 1,5-cz-Lig isomer, Na^I [5]: 75%
conversion to 1,5-cz-Lig isomer, Rb^I [5]: 14%
conversion to 1,4-cz-Lig isomer, Li^I [5]: 14%
conversion to 1,5-cz-Lig isomer, Li^I [5]: 24%
